Where two headings read alike, the source gives them in different places.
What was measured:
Assay type in all cases: cell-based
[1] = tested on: A2780 ovarian cells; assay: A2780 Ovarian Cell Proliferation Assay in Lipid Reduced Medium, with and without Palmitate (MTT); conditions: Homo sapiens, 10% lipid-reduced serum, 96 h
Procedure: The biological assays described below correspond to comparative assays for ovarian cell proliferation.
2500 cells were seeded in a 96-well clear well plate in 200 μL RPM11640 with 10% Fetal Calf Serum (Hyclone), and incubated at 37° C., 5% CO2, Blanks were wells without cells. The next day the culture medium was aspirated and replaced by 160 μL culture medium with 10% Lipid-Reduced Serum (LRS, Hyclone). […] After 96 h incubation, an MTT assay was performed.
2500 cells were seeded in a 96-well clear well plate in 200 μL RPM11640 with 10% Fetal Calf Serum (Hyclone), and incubated at 37° C., 5% CO2. Blanks were wells without cells. The next day the culture medium was aspirated and replaced by 160 μL culture medium with 10% Lipid-Reduced Serum (LRS, Hyclone). 20 μL test compound (at concentrations of 30 μM, 10 μM, 3 μM, 1 μM, 0.30 μM, 0.10 μM, 0.03 μM and 0.01 μM)/DMSO dilution followed by 20 μL ethanol-BSA solution were added to a final concentrations of 0.2% DMSO, 0.2% fatty-acid-free BSA, 0.25% ethanol. After 96 h incubation an MTT assay was performed.
Raw data generated by the instrument were normalized to % Controlmin values, which were calculated as: % Controlmin=100*(x−mLC)/(mHC−mLC)
where mLC and mHC were the means of the low control wells and high control wells on the plate, after manual exclusion of outliers. A plot of Controlmin versus test compound concentration was fitted to a 4-parameter logistic curve using a non-linear least squares regression method.

[2] = tested on: LNCaP_Vancouver prostate cells; assay: In Vitro LNCaP Vancouver Prostate Cell Proliferation Assay in Lipid Reduced Medium; conditions: Prostate cell; 10% lipid reduced serum, 96 h, ATP-glow luminescence; read-out: pIC50 LNCaP_Vancouver prostate cell (converted)
Procedure: LNCaP_Vancouver prostate cells were obtained from the Vancouver Prostate Cancer Centre.
(§1) The next day 10 μl of test compound/DMSO diluted in medium was added (3E-5M, 1E-5M, 3E-6M,1E-6M, 3E-7M, 1E-7M, 3E-8M, 1E-8M final concentration). Compounds were tested in duplicate. After 96 h incubation at 37° C., 5% CO2 25 μl ATP-glow mix was added. The plate was incubated for 30 min at 37° C. and luminescence was measured with the Envision.
(§2) Analysis: Determination of pIC50 Values
(§3) pIC50 values were calculated as follows. Raw data generated by the instruments were normalized to % Controlmin values, which were calculated as: % Controlmin=100*(x−mLC)/(mHC−mLC),
(§4) where mLC and mHC are the means of the low control wells and high control wells on the plate, after manual exclusion of outliers. The relation between the % Controlmin values and concentration was fitted to a 4-parameter logistic curve using a non-linear least squares regression method to determine the pIC50 value. Outlying data points were excluded manually to get a correct fit. The pIC50 corresponds to −log 10(IC50), if the IC50 is expressed in molar units (http://www.ncbi.nlm.nih.qovibooks/NBK91994). The IC50 parameter was always determined by non-linear regression, but one or more of the other parameters may have been held fixed on a relevant input value, such as 0 for the bottom values.

[3] = tested on: PC-3M-Luc-C6 prostate cells; assay: In Vitro PC-3M-Luc-C6 Prostate Cell Proliferation Assay in Lipid Reduced Medium; conditions: Prostate cell, read-out: pIC50 PC-3M-Luc-C6 prostate cell (converted); 10% lipid reduced serum, 96 h, ATP-glow luminescence
Procedure: PC-3M-Luc-C6 prostate cells were obtained from Xenogen Corporation. Cells were maintained in MEM supplemented with 10% Fetal Calf Serum (FCS, Hyclone), 2 mM glutamine, 1 mM sodium pyruvate, 1% BME vitamins (available from for example, Sigma Aldrich), 0.1 mM non Essential Amino Acid and 50 μg/ml Gentamicin. The cells were passaged twice a week.
as §1, with “μl” for “μl of”
as §2, §3, §4

[4] = 25 μM palmitate added (control), read-out: pIC50 With Palmitate (converted)
[5] = no palmitate, read-out: pIC50 Without Palmitate (converted)

IC50 [1, 4] [nM] | IC50 [1, 5] [nM] | IC50 [2] [nM] | IC50 [3] [nM] | Structure (SMILES)
> 10000 | 2510 | 8910 | 1820 | Cn1cc(-c2ccc(-c3ccc(C4=NC(C)(C)C(=O)N4CC4CN(C(=O)C5CC5)C4)cc3)cc2)cn1 [Compound 17, 1-((1-(cyclopropanecarbonyl)azetidin-3-yl)methyl)-4,4-dimethyl-2-(4′-(1-methyl-1H-pyrazol-4-yl)-[1,1′-biphenyl]-4-yl)-1H-imidazol-5(4H)-one]
> 10000 | ~269 | 813 | 224 | CC1(C)N=C(c2ccc(-c3ccc(-c4ccncc4)cc3)cc2F)N(CC2CN(C(=O)C3CC3)C2)C1=O [Compound 22, 1-((1-(cyclopropanecarbonyl)azetidin-3-yl)methyl)-2-(3-fluoro-4′-(pyridin-4-yl)-[1,1′-biphenyl]-4-yl)-4,4-dimethyl-1H-imidazol-5(4H)-one]
> 10000 | 75.9 | 219 | 53.7 | CC1(C)N=C(c2ccc(-c3ccc4cccnc4c3)cc2)N(C[C@@H]2CCN(C(=O)C3CC3)C2)C1=O [Compound 23]
> 10000 | ~363 | 1450 | 447 | CC1(C)N=C(c2ccc(-c3ccc4cccnc4c3)cc2)N(CC2CN(C(=O)C3CC3)C2)C1=O [Compound 24, 1-((1-(cyclopropanecarbonyl)azetidin-3-yl)methyl)-4,4-dimethyl-2-(4-(quinolin-7-yl)phenyl)-1H-imidazol-5(4H)-one]
> 10000 | 1170 | 2880 | 891 | CC1(C)N=C(c2ccc(-c3cnc4ccccc4c3)cc2)N(C[C@@H]2CCN(C(=O)C3CC3)C2)C1=O [Compound 25, (R)-1-((1-(cyclopropanecarbonyl)pyrrolidin-3-yl)methyl)-4,4-dimethyl-2-(4-(quinolin-3-yl)phenyl)-1H-imidazol-5(4H)-one]
> 10000 | 1950 | 3390 | 1000 | CC1(C)N=C(c2ccc(-c3ccc(-c4ccncc4)cc3)cc2)N(CC2CN(C(=O)C3CC3)C2)C1=O [Compound 26, 1-((1-(cyclopropanecarbonyl)azetidin-3-yl)methyl)-4,4-dimethyl-2-(4′-(pyridin-4-yl)-[1,1′-biphenyl]-4-yl)-1H-imidazol-5(4H)-one]
> 10000 | ~316 | 1380 | 324 | CC1(C)N=C(c2ccc(-c3ccc4cnccc4c3)cc2)N(CC2CN(C(=O)C3CC3)C2)C1=O [Compound 27, 1-((1-(cyclopropanecarbonyl)azetidin-3-yl)methyl)-2-(4-(isoquinolin-6-yl)phenyl)-4,4-dimethyl-1H-imidazol-5(4H)-one]
> 10000 | 58.9 | 1580 | 63.1 | CC1(C)N=C(c2ccc(-c3ccc4cnccc4c3)cc2)N(C[C@@H]2CCN(C(=O)C3CC3)C2)C1=O [Compound 28]

More lines, now with the values behind:

Structure (SMILES) | IC50 [1, 4] [nM] | IC50 [1, 5] [nM] | IC50 [2] [nM] | IC50 [3] [nM]
CC1(c2ccccc2)N=C(c2ccc(-c3ccc4occc4c3)cc2)N(C[C@@H]2CCN(C(=O)C3CC3)C2)C1=O (mixture of isomers) [Compound 5, (4RS)-2-(4-(Benzofuran-5-yl)phenyl)-1-(((R)-1-(cyclopropanecarbonyl)pyrrolidin-3-yl)methyl)-4-methyl-4-phenyl-1H-imidazol-5(4H)-one] | > 10000 | 2000 | 4370 | ~1860
Cn1ncc2cc(-c3ccc(C4=NC(C)(c5ccccc5)C(=O)N4C[C@@H]4CCN(C(=O)C5CC5)C4)cc3)ccc21 (mixture of isomers) [Compound 6, (4RS)-1-(((R)-1-(cyclopropanecarbonyl)pyrrolidin-3-yl)methyl)-4-methyl-2-(4-(1-methyl-1H-indazol-5-yl)phenyl)-4-phenyl-1H-imidazol-5(4H)-one] | > 10000 | 363 | 1820 | 501
CC1(c2ccccc2)N=C(c2ccc(-c3ccc4[nH]ccc4c3)cc2)N(C[C@@H]2CCN(C(=O)C3CC3)C2)C1=O (mixture of isomers) [Compound 7, (4RS)-2-(4-(1H-Indol-5-yl)phenyl)-1-(((R)-1-(cyclopropanecarbonyl)pyrrolidin-3-yl)methyl)-4-methyl-4-phenyl-1H-imidazol-5(4H)-one] | > 10000 | 132 | 234 | 74.1
COCC1(C)N=C(c2ccc(-c3ccc4occc4c3)cc2)N(C[C@@H]2CCN(C(=O)C3CC3)C2)C1=O (mixture of isomers) [Compound 8, (4RS)-2-(4-(Benzofuran-5-yl)phenyl)-1-(((R)-1-(cyclopropanecarbonyl)pyrrolidin-3-yl)methyl)-4-(methoxymethyl)-4-methyl-1H-imidazol-5(4H)-one] | > 10000 | 1150 | 2570 | 1290
CC1(C2CC2)N=C(c2ccc(-c3ccc4occc4c3)cc2)N(C[C@@H]2CCN(C(=O)C3CC3)C2)C1=O (mixture of isomers) [Compound 9, (4RS)-2-(4-(Benzofuran-5-yl)phenyl)-1-(((R)-1-(cyclopropanecarbonyl)pyrrolidin-3-yl)methyl)-4-cyclopropyl-4-methyl-1H-imidazol-5(4H)-one] | > 10000 | ~1910 | 2040 | 1620
COCC1(C)N=C(c2ccc(-c3ccc4c(cnn4C)c3)cc2)N(C[C@@H]2CCN(C(=O)C3CC3)C2)C1=O (mixture of isomers) [Compound 10, (4RS)-1-(((R)-1-(cyclopropanecarbonyl)pyrrolidin-3-yl)methyl)-4-(methoxymethyl)-4-methyl-2-(4-(1-methyl-1H-indazol-5-yl)phenyl)-1H-imidazol-5(4H)-one] | > 10000 | ~741 | 3630 | 933
CC1(C)N=C(c2ccc(-c3nc4ccccc4o3)cc2)N(C[C@@H]2CCN(C(=O)C3CC3)C2)C1=O [Compound 11, (R)-2-(4-(benzo[d]oxazol-2-yl)phenyl)-1-((1-(cyclopropanecarbonyl)pyrrolidin-3-yl)methyl)-4,4-dimethyl-1H-imidazol-5(4H)-one] | > 10000 | 3720 | ~10000 | ~2000
CC1(C)N=C(c2ccc(-c3ccc(-c4ccncc4)cc3)cc2)N(C[C@@H]2CCN(C(=O)C3CC3)C2)C1=O [Compound 15, (R)-1-((1-(cyclopropanecarbonyl)pyrrolidin-3-1)methyl)-4,4-dimethyl-2-(4′-(pyridin-4-yl)-[1,1′-biphenyl]-4-yl)-1H-imidazol-5(4H)-one] | > 10000 | 178 | 759 | 158
Cn1cc(-c2ccc(-c3ccc(C4=NC(C)(C)C(=O)N4C[C@@H]4CCN(C(=O)C5CC5)C4)cc3)cc2)cn1 [Compound 16, (R)-1-((1-(cyclopropanecarbonyl)pyrrolidin-3-yl)methyl)-4,4-dimethyl-2-(4′-(1-methyl-1H-pyrazol-4-yl)-[1,1′-biphenyl]-4-yl)-1H-imidazol-5(4H)-one] | > 10000 | 186 | 331 | 174

Source: patent US10413545B2, “Imidazolin-5-one derivative useful as FASN inhibitors for the treatment of cancer” (Janssen Pharmaceutica NV, priority 2013, dated 2019)
